Reference: US9128100B2, “Non-invasive diagnostic method for the evaluation of intestinal lactase deficiency (hypolactasia)” (Venter Pharma, S.L., priority 2012, dated 2015)
Values joined by “and” are separate entries in the source; they are usually repeats but may differ in a detail not shown here. Identical values can stand only once.

Assays:
[1] = target: T1, intestinal lactase (Homo sapiens, UniProt P09848); assay: Lower limits of normal (cut-off points) of xylose in urine and blood of healthy controls after 4-GX; assay type: in vivo; conditions: mean minus 1.96 SD of healthy controls
T1 construct: after its oral administration it is hydrolysed by the intestinal mucosa enzyme; from tissue; host or cells: small-intestinal mucosa (enterocyte brush border) of living human volunteers and patients, in vivo
Text: The indicator of the lower limit of normal was taken to be the difference between the average xylose concentrations in blood and/or the difference between the average total amounts of xylose excreted in the urine, and 1.96 times the standard deviation.
The data obtained with the 4-GX administration test in the healthy control group was used to determine the lower limits of normal of xylose in urine and blood (cut-off points). The cut-off points for the 4-GX test in urine were obtained for times of 4 hours and 5 hours because, as already seen in example 2, these times are the best for determining the amount of xylose excreted in urine following 4-GX administration and performing a reliable diagnosis of lactase deficiency. Similarly, the cut-off points for the determination of the blood xylose concentration following 4-GX administration were obtained for the time of 90 minutes following ingestion of the disaccharide. The difference between the average xylose concentration (in blood and the total quantity of xylose excreted in the urine) and 1.96 times the standard deviation was used for the lower limit of normal indicator. The lower limit of xylose accumulated in 4-hour urine was 27.58 mg; xylose accumulated in 5-hour urine was 37.87 mg and the increase in the concentration of plasma xylose after 90 minutes following ingestion of the product, compared to basal blood, was 0.97 mg/dL.

[2] = target: T1, intestinal lactase; assay: 4-GX test in 4-hour urine, patients with symptoms suggestive of lactose intolerance; assay type: in vivo
Experimental: (§1) The diagnostic tests to which these patients were subjected were: • Intestinal biopsy: determining intestinal lactase activity therein. • Hydrogen breath test after the oral administration to patients of 50 g of lactose. While this test was being carried out, several capillary-blood glucose test (Glycemia tests) were carried out, calculating the highest increase observed in the blood glucose concentration compared to basal glucose level before starting the test. • 4-GX test in total urine at 0-4 and 0-5 hours, which was orally administered to patients 0.5 g of this product (or 0.45 g in a 4-GX sample including 10 wt % water), collecting the total urine accumulated over 0-4 h and 0-5 h following the administration of 4-GX and determining the amount of excreted xylose in both volumes of urine. • 4-GX test in blood which was orally administered to patients 3 g of this product (or 2.7 g in a 4-GX sample including 10 wt % water) to determine the concentration of plasma xylose in a blood sample 90 minutes after ingestion of the product. The concentration obtained was compared to a basal blood sample extracted before ingestion of 4-GX.
The 4-GX was orally administered in a single dose dissolved in 100 ml of water.
From here on, the optimum dose of 0.5 g of 4-GX (or 0.45 g in a 4-GX sample including 10 wt % water) was used in the 4-GX urine test for the diagnosis of intestinal lactase deficiency by the non-invasive method described in the present invention. This dose was dissolved in 100 ml water, and following the test protocol, 2 samples of urine excreted during the 5 hours following the administration of the drug were taken, in two interval groups: at 4 hours following administration of 4-GX and at 5 hours following administration of 4-GX.
From the data obtained from the various urine tests for intestinal lactase deficiency following oral ingestion of 4-GX described in the present invention, a descriptive statistical analysis was performed of the amount of xylose excreted in the urine up to 4 hours and up to 5 hours following said administration. The same was done with the blodd test for intestinal lactase activity following oral ingestion of 4-GX, where descriptive statistical analysis was performed on the amount of xylose present in the plasma of subjects at 90 minutes following administration of 4-GX. The net increase in the plasma xylose concentration compared to basal values was also calculated.
To obtain the statistical parameters of lactase determination using the various 4-GX tests described in the present invention and later to compare them with the results obtained from the intestinal biopsy test, hydrogen in exhaled air test and capillary-blood glucose test, the normal limits of the measurement of the total amount of xylose excreted in 4-hour and 5-hour urine and the concentration of blood xylose after 90 minutes following ingestion of 4-GX described in Table 5 were used. The normal limits for the other tests were those used in common clinical practice for the diagnosis of lactose intolerance (Arola, H. (1994) Diagnosis of hypolactasia and lactose malabsorption. Scand. J. Gastroenterol. […] (Suppl), 26-35), which are:
For the measurement of lactase by intestinal biopsy, the lower normal limit is established at 10 units/g protein, with values less than this being considered positive.

[3] = target: T1, intestinal lactase; assay: The three 4-GX tests (4-hour urine, 5-hour urine, blood) taken together; assay type: in vivo; conditions: all 4-GX tests; after correcting biopsy diagnosis
Experimental: as §1
The 4-GX was orally administered in a single dose dissolved in 100 ml of water. […]

[4] = target: T1, intestinal lactase; conditions: ES 2208099, cited from earlier work
[5] = 0.5 g 4-GX, 0-4 h urine, cut-off 27.58 mg, 205 patients
[6] = 0.5 g 4-GX, 4-hour urine, lactase in intestinal biopsy as gold standard
[7] = 4-hour urine, after correcting biopsy diagnosis
[8] = 4-hour urine, after correction of the biopsy diagnostic result (five discrepancies)
[9] = 4-hour urine, after correction of the biopsy diagnostic result (four discrepancies)
[10] = 4-hour urine, biopsy as gold standard
[11] = 4-hour urine, final criteria of Table 9

T1 sequence (P09848 869-1927): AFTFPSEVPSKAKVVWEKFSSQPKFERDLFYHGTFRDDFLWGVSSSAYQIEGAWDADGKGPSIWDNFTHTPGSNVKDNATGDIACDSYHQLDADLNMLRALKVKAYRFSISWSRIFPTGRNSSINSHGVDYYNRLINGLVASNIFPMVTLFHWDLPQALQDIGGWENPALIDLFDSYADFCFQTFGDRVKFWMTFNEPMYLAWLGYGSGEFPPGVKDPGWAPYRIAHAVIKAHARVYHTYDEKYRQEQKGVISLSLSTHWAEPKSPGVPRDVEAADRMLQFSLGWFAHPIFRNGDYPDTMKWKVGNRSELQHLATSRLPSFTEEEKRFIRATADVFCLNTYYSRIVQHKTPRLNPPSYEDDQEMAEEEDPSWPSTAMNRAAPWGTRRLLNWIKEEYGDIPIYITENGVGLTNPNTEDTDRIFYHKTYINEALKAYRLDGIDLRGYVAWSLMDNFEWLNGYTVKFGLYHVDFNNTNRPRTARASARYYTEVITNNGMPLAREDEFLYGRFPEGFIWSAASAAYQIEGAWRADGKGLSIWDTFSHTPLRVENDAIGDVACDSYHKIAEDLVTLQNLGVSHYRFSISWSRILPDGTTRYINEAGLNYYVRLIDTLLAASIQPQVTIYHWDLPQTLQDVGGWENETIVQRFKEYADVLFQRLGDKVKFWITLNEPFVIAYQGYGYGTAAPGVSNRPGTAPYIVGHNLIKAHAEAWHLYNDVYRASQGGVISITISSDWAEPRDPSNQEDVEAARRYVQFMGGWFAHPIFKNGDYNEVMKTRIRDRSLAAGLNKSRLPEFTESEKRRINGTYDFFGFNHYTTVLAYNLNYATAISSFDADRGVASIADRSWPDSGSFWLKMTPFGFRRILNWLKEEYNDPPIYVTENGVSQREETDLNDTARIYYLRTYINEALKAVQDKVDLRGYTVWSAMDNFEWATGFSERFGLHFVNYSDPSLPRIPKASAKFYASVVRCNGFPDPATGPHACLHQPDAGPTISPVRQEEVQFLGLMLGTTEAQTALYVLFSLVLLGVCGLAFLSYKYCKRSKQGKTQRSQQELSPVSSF

Cut-off point, total xylose in 4-hour urine ([1]; 4-GX 0.125 g): 11.88 mg
Cut-off point, total xylose in 5-hour urine ([1]; 4-GX 0.125 g): 16.72 mg
Cut-off point, total xylose in 4-hour urine ([1]; 4-GX 0.250 g): 20.62 mg
Cut-off point, total xylose in 5-hour urine ([1]; 4-GX 0.250 g): 28.08 mg
Cut-off point, total xylose in 4-hour urine ([1]; 4-GX 0.5 g): 27.58 mg
Cut-off point, total xylose in 5-hour urine ([1]; 4-GX 0.5 g): 37.87 mg
Cut-off point, xylose concentration in 90-min blood (increase over basal) ([1]; 4-GX 0.5 g): 0.41 mg/dL
Cut-off point, total xylose in 4-hour urine ([1]; 4-GX 1 g): 33.04 mg
Cut-off point, total xylose in 5-hour urine ([1]; 4-GX 1 g): 41.35 mg
Cut-off point, xylose concentration in 90-min blood (increase over basal) ([1]; 4-GX 1 g): 0.53 mg/dL
Cut-off point, total xylose in 4-hour urine ([1]; 4-GX 3 g): 45.58 mg
Cut-off point, total xylose in 5-hour urine ([1]; 4-GX 3 g): 69.57 mg and 69.75 mg
Cut-off point, xylose concentration in 90-min blood (increase over basal) ([1]; 4-GX 3 g): 0.97 mg/dL
Cut-off point, total xylose in 4-hour urine ([1]; 4-GX 6 g): 87.96 mg
Cut-off point, total xylose in 5-hour urine ([1]; 4-GX 6 g): 110.12 mg
Cut-off point, xylose concentration in 90-min blood (increase over basal) ([1]; 4-GX 6 g): 1.44 mg/dL
recalculated values for sensitivity, specificity, positive and negative predictive values [3]: above 95%
Structure (SMILES): O=C[C@H](O)[C@@H](O)[C@@H](CO)O[C@@H]1O[C@H](CO)[C@H](O)[C@H](O)[C@H]1O [4-GX, 4-O-β-galactopyranosyl-D-xylose]
No. Negative [2, 5]: 100
No. Positive (patients presenting intestinal lactase deficiency) [2, 5]: 105
Percentage of patients negative [2, 5]: 49%
Percentage of patients positive [2, 5]: 51.2% and 51%
Negative predictive value [2, 6]: 90%
Positive predictive value [2, 6]: 93.3% and 93.33%
Sensitivity [2, 6]: 90.7% and 90.74%
Specificity [2, 6]: 92.8% and 92.78%
sensitivity calculated using the ROC curves ([2]; 4-hour urine samples): 90.7%
specificity calculated using the ROC curves ([2]; 4-hour urine samples): 93.8%
range of recalculated sensitivity, specificity, positive and negative predictive values ([2]; 4-hour urine test, after correcting biopsy diagnosis): 96.00-98.10
false negatives [2, 7]: 3.74%
negative likelihood ratio [2, 7]: 0.038
positive likelihood ratio [2, 7]: 47.168
Negative predictive value [2, 8]: 96.00%
Positive predictive value [2, 8]: 98.10%
Sensitivity [2, 8]: 96.26%
Specificity [2, 8]: 97.96%
Negative predictive value [2, 9]: 97.00%
Positive predictive value [2, 9]: 99.05%
Sensitivity [2, 9]: 97.20%
Specificity [2, 9]: 98.98%
area under the ROC curve [2, 10]: 0.9282
false negatives [2, 10]: 9.3%
false positives [2, 10]: 7.2%
concordant positive results, percentage [2, 11]: 96.3%
final number of concordant positive results [2, 11]: 103
negative results (concordant), percentage [2, 11]: 98.0%
number of negative results (concordant) [2, 11]: 96
time of maximum xylose in plasma after ingestion ([4]; 3 g 4-GX oral, lactose-tolerant adult volunteers): around 2 hours
dose of 4-GX sufficient for reliable detection of xylose in urine ([4]; healthy lactose-tolerant adult volunteers): 0.25 g
